Test results reported in US6004976A, “Thrombin inhibitors” (Merck & Co., Inc., priority 1998, dated 1999).

target: T1, human α-thrombin (Homo sapiens, UniProt P00734); experiment: In vitro assay for determining proteinase inhibition (thrombin); type: biochemical; conditions: 25° C., 0.05 M TRIS buffer pH 7.4, 0.15 M NaCl, 0.1% PEG
T1 construct: human α-thrombin
Description: In Vitro Assay for Determining Proteinase Inhibition
Assays of human α-thrombin and human trypsin were performed at 25° C. in 0.05 M TRIS buffer pH 7.4, 0.15 M NaCl, 0.1% PEG. Trypsin assays also contained 1 mM CaCl2.
In assays wherein rates of hydrolysis of a p-nitroanilide (pna) substrate were determined, a Thermomax 96-well plate reader was used to measure (at 405 nm) the time dependent appearance of p-nitroaniline. sar-PR-pna (sarcosine-Pro-Arg-p-nitroanilide) was used to assay human α-thrombin (Km=125 μM) and human trypsin (Km=59 μM). p-Nitroanilide substrate concentration was determined from measurements of absorbance at 342 nm using an extinction coefficient of 8270 cm-1M-1.
In certain studies with potent inhibitors (Ki<10 nM) where the degree of inhibition of thrombin was high, a more sensitive activity assay was employed. In this assay the rate of thrombin catalyzed hydrolysis of the fluorogenic substrate Z-GPR-afc (Cbz-Gly-Pro-Arg-7-amino-4-trifluoromethylcoumarin) (Km=27 μM) was determined from the increase in fluorescence at 500 nm (excitation at 400 nm) associated with production of 7-amino-4-trifluoromethyl coumarin. Concentrations of stock solutions of Z-GPR-afc were determined from measurements of absorbance at 380 nm of the 7-amino-4-trifluoromethyl coumarin produced upon complete hydrolysis of an aliquot of the stock solution by thrombin.
Activity assays were performed by diluting a stock solution of substrate at least tenfold to a final concentration≤0.5 Km into a solution containing enzyme or enzyme equilibrated with inhibitor. Times required to achieve equilibration between enzyme and inhibitor were determined in control experiments. Initial velocities of product formation in the absence (Vo) or presence of inhibitor (Vi) were measured. Assuming competitive inhibition, and that unity is negligible compared Km/[S], [I]/e, and [I]/e (where [S], [I], and e respectively represent the total concentrations, of substrate, inhibitor and enzyme), the equilibrium constant (Ki) for dissociation of the inhibitor from the enzyme can be obtained from the dependence of Vo/Vi on [I] shown in equation 1.

| Ki | Compound |
| --- | --- |
| < 0.01 µM | Cc1nc(N)ccc1CNC(=O)Cn1c(C)cc2c([nH]c(=O)n2CCc2ccccc2)c1=O |
| < 0.01 µM | Cc1nc(N)ccc1CNC(=O)Cn1c(C)cc2c([nH]c(=O)n2CCc2ccccn2)c1=O |
| > 0.01 µM | Cc1nc(N)ccc1CNC(=O)Cn1c(C)cc2c([nH]c(=O)n2CC2CCCCC2)c1=O |
| > 0.01 µM | Cc1nc(N)ccc1CNC(=O)Cn1c(C)cc2c([nH]c(=O)n2CCC(C)(C)C)c1=O |
| > 0.01 µM | Cc1nc(N)ccc1CNC(=O)Cn1c(C)cc2c([nH]c(=O)n2[C@H](C)c2ccccc2)c1=O |
| > 0.01 µM | Cc1nc(N)ccc1CNC(=O)Cn1c(C)cc2c([nH]c(=O)n2CC2CC2)c1=O |
| < 0.01 µM | Cc1nc(N)ccc1CNC(=O)Cn1c(C)cc2c([nH]c(=O)n2CCC(C)C)c1=O |
| > 0.01 µM | Cc1cc2c([nH]c(=O)n2CCC(C)C)c(=O)n1CC(=O)NCc1ccccc1OCC(=O)NC1CC1 |
